Data: patent US4070492A, “Propranolol assay” (priority 1977, dated 1978)
“Also recorded” adds a separate entry of the source.

What was measured:
[1] = test system: heart rate increase caused by isoproterenol; test: Inhibition by propranolol of heart rate increase caused by isoproterenol in anesthetized rats; format: in vivo; conditions: rat, 1 mg/kg i.v.
Source text: Increase in heart rate in response to isoproterenol 0.5 g/kg i.v. was compared beforeand at varying time after the administration of propranolol.

[2] = Disposition of propranolol in rats: serum/blood levels by radioimmunoassay; conditions: rat; for disposition in blood: 1 mg/kg racemic propranolol i.v., in words; for half-life: blood, iv, 1 mg/kg
[3] = test system: antiserum against l-propranolol; test: Competition with 3H-propranolol for binding to antiserum against l-propranolol (radioimmunoassay specificity); parameters: species or system rabbit; conditions: for inhibition of 3H-propranolol binding: at 100 ng
Method: (§1) New Zealand albino rabbits were immunized with propranolol-BSA immunogens once a week for 4 weeks and then once every 2 to 4 weeks. The immunogen was dissolved in phosphate-buffered saline (pH 7.4)
(§2) and emulsified with an equal amount of complete Freund's adjuvant. One ml. of emulsion containing 500 μg of immunogen was injected into four foot pads and intramuscularly into both thighs. Bleedings were taken from the central ear artery 6 to 8 days after the third booster injection. Blood was allowed to clot overnight at 4° C. and centrifuged at 2,000 rpm for 15 mintues to separate serum.
(§3) Antisera were diluted in a 2.5% solution of normal rabbit serum in 1:10 phosphate buffered saline. 0.4 ml. of this mixture was added to the assay tubes (10 × 75 mm). 10 μ1. of unknown or standard solutions were added to the tubes. 0.1 ml. of radioactive, d,l-propranolol solution containing 60 pg. (approximately 2,500 cpm) for antiserum against […] and 120 pg. (approximately 5,000 cpm) for antiserum against l-propranolol was subsequently added. The tubes were incubated overnight at 4° C. Antibody bound propranolol was separated by the addition of 0.5 ml. of saturated ammonium sulfate. The pellet was washed once with 0.8 ml. of 50% saturated ammonium sulfate, then dissolved in 0.5 ml. of water and transferred into a counting vial. The tube was washed twice with 3 ml. of Riafluor. Another portion of 6 ml. Riafluor was added to the vial to give a total volume of 12 ml., and the radioactivity was counted in a scintillation counter. The dilutions of the antisera used were 1:10,000 and 1:1000 respectively against d,l-propranolol and l-propranolol.
(§4) The sensitivity of radioimmunoassay for d,l-propranolol and its l-isomer in phosphate-buffered saline and serum were determined.
(§5) ID50 refers to the amount of the compound required to produce 50% inhibition of ^3 H-propranolol-antibody complex formation.

[4] = test system: both antisera (against d,l-propranolol and l-propranolol); test: Competition with 3H-propranolol for binding, results stated once for both antisera; parameters: species or system rabbit; conditions: for recognition / cross-reaction / interference: in words; for inhibition of 3H-propranolol binding: at 100 ng
Method: as §1, §2, §3, §4, §5

[5] = test system: antiserum against d,l-propranolol; test: Competition with 3H-propranolol for binding to antiserum against d,l-propranolol (radioimmunoassay specificity); parameters: species or system rabbit; conditions: for inhibition of 3H-propranolol binding: at 100 ng; for recognition by antiserum against d,l-propranolol: d- versus l-propranolol
Method: as §1, §2, §3, §4, §5

[6] = rat, in vivo, iv, 1 mg/kg
[7] = test system: rat heart; test: Disposition of propranolol in rats: heart levels by radioimmunoassay; conditions: 1 mg/kg d,l-propranolol i.v.
[8] = as above; conditions: rat, heart, iv, 1 mg/kg
[9] = antiserum against l-propranolol

CC(C)NCC(O)COc1cccc2ccccc12 (racemic) [propranolol]
time by which effect on heart rate disappeared [1]: ≤ 90 min
suppression of increase in heart rate due to isoproterenol ([1]; first 30 minutes after administration): markedly suppressed
disposition in blood [2]: declines rapidly in the blood following the injection

Oc1ccc(O)c2ccccc12 [1,4-naphthalene-diol]
inhibition of 3H-propranolol binding ([3]; anti-l-propranolol antiserum): 17%
concentration needed for interference with the assay ([4]; both antisera): at least 1,000 times greater
inhibition of 3H-propranolol binding ([5]; anti-d,l-propranolol antiserum): no inhibition

Oc1cccc2ccccc12 [1-naphthol]
inhibition of 3H-propranolol binding ([3]; anti-l-propranolol antiserum): 45%
concentration needed for interference with the assay ([4]; both antisera): at least 1,000 times greater
inhibition of 3H-propranolol binding ([5]; anti-d,l-propranolol antiserum): 25%

O=C(O)COc1cccc2ccccc12 [1-naphthoxy acetic acid]
inhibition of 3H-propranolol binding ([3]; anti-l-propranolol antiserum): 25%
concentration needed for interference with the assay ([4]; both antisera): at least 1,000 times greater
inhibition of 3H-propranolol binding ([5]; anti-d,l-propranolol antiserum): 10%

CC(C)NCC(O)COc1ccc(O)c2ccccc12 (stereo not drawn) [4-hydroxy-propranolol]
concentration needed for recognition by the l-antibody [3, 9]: ≥ 35 times greater
concentration needed for recognition by the d,l-antibody ([5]; antiserum against d,l-propranolol): ≥ 70 times greater

CC(C)NC[C@@H](O)COc1cccc2ccccc12 [d-propranolol]
initial blood level relative to l-propranolol [6]: three times higher
amount of l-form as which 100 pg of the d isomer is recognized by the l-antibody ([3]; 100 pg of d isomer): 7 pg
ID50 and 95% confidence limits ([3]; anti-l-propranolol antiserum, amount for 50% inhibition of 3H-propranolol-antibody complex formation, 95% confidence limits in parentheses): 1656 pg
ID50 relative to that for l-propranolol [3, 9]: 14 times
ID50 and 95% confidence limits ([5]; anti-d,l-propranolol antiserum, amount for 50% inhibition of 3H-propranolol-antibody complex formation, 95% confidence limits in parentheses): 314 pg
recognition by antiserum against d,l-propranolol [5]: to the same degree
half-life [2]: 23.8 min
disposition in blood [2]: remains in the blood and is metabolized rapidly

CC(C)NCC(O)c1ccc(Cl)c(Cl)c1 (stereo not drawn) [dichloroisoproterenol]
inhibition of 3H-propranolol binding ([3]; anti-l-propranolol antiserum): no inhibition
recognition / cross-reaction / interference ([4]; both antisera): not significant recognized by either antisera
inhibition of 3H-propranolol binding ([5]; anti-d,l-propranolol antiserum): 13%

NCCc1ccc(O)c(O)c1 [dopamine]
inhibition of 3H-propranolol binding [4]: no inhibition

CNCC(O)c1ccc(O)c(O)c1 (stereo not drawn) [epinephrine]
inhibition of 3H-propranolol binding [4]: no inhibition

CC(C)N [isopropylamine]
inhibition of 3H-propranolol binding [4]: no inhibition
concentration needed for interference with the assay ([4]; both antisera): at least 1,000 times greater

CC(C)NCC(O)c1ccc(O)c(O)c1 (stereo not drawn) [isoproterenol]
inhibition of 3H-propranolol binding [4]: no inhibition
recognition / cross-reaction / interference ([4]; both antisera): no cross-reaction

CC(C)NC[C@H](O)COc1cccc2ccccc12 [l-propranolol]
selectivity of antiserum against l-propranolol ([3]; l-propranolol versus d-isomer): able to discriminate the l-propranolol selectively; also recorded: more selectively than the d-isomer
recognition by antiserum against d,l-propranolol [5]: to the same degree
decline in heart compared with blood ([7]; after half an hour): almost parallel to that found in the blood
heart uptake / presence in heart ([7]; in words, 1 mg/kg): rapid accumulation of l-propranolol by the heart; also recorded: stereospecific uptake of l-propranolol by the rat heart; also recorded: only l-propranolol could be found in the heart
half-life [8]: 62 min
half-life [2]: 52 min
half-life relative to d-isomer ([2]; 1 mg/kg d,l-propranolol i.v.): almost twice that of the d-isomer

NCC(O)c1ccc(O)c(O)c1 (stereo not drawn) [norepinephrine]
inhibition of 3H-propranolol binding [4]: no inhibition

CC(C)NCC(O)c1ccc2ccccc2c1 (stereo not drawn) [pronethalol]
recognition / cross-reaction / interference ([4]; both antisera): not significant recognized by either antisera
inhibition of 3H-propranolol binding ([5]; anti-d,l-propranolol antiserum): 45%

OCC(O)COc1cccc2ccccc12 (stereo not drawn) [propranolol glycol, 1-(1-naphthoxy)-2,3-propylene glycol]
ID50 relative to values for l-propranolol and d,l-propranolol ([4]; both antisera): 9-14 times
